Assay results taken from patent US5334707A, “Use of acyl phosphate esters in the modification of hemoglobin” (priority 1992, dated 1994).
“Also recorded” adds a separate entry of the source.

How the values were obtained:
[1] = Solution stability (hydrolysis followed by 31P NMR) of bis(methyl acyl phosphates) in tris-HCl buffer; format: physicochemical; conditions: 0.100M tris-HCl buffer, pH 7.4, 37° C.; for half-life: 0.1 m tris-hcl buffer, 31P NMR
Procedure: The solution stability of the bis(methyl acyl phosphates) was examined. The hydrolysis of fumaryl bis(sodium methyl phosphate), stilbene 3,3'dicarboxylic acid bis(sodium methyl phosphate) and stilbene 4,4'dicarboxylic acid bis(sodium methyl phosphate) in 0.100M tris-HCL buffer, pH 7.4, 37° C., were followed by integrating signals for the reactant and the phosphorus-containing product, methyl phosphate, in the ^31 P NMR spectrum. Production of methyl phosphate was observed as an indication of hydrolysis or of acylation of the buffer. […] The half life of the 3,3'stilbene derivative, was 100 hours. […] This is in agreement with earlier reports of the reactivity of acyl phosphate esters (Disabato, G.; Jencks, W. P., J. Am. Chem. Soc. 1961, 83, 4393, 4400).

human hemoglobin [2] = assay: Inter-subunit cross-linking of hemoglobin by SDS-polyacrylamide gel electrophoresis; format: biochemical; conditions: 0.3 mM hemoglobin, pH 7.4, 37° C., four hours
Procedure: Solutions (2 mL) of 4,4'stilbene dicarboxylic acid bis(methyl phosphate) at concentrations of 0.3 mM, 3.0 mM, 30 mM, and 300 mM were prepared in 0.100M tris-HCL buffer pH 7.4. A control solution containing only the buffer was prepared. To each of these freshly prepared solutions, 40 mg of human hemoglobin (Sigma Chemical Company) was added so that the resulting solution was 0.3 mM in hemoglobin. The reaction mixtures were than stirred vigorously and incubated at 37° C. After four hours the solutions were dialyzed against 0.100M sodium phosphate buffer, pH 7.0, for 20 hours at 4° C. to remove the unreacted acyl phosphates. The samples were then lyophilized and analyzed by SDS-polyacrylamide gel electrophoresis to assess the extent of intersubunit cross-linking (Weber, K; Osborn, M.; J. Biol. Chem. 1969, 244, 4406). Prior to electrophoresis, the hemoglobin samples, cross-linked bovine hemoglobin standard (Sigma Dalton Mark VII-L doubly crystallized, dialyzed, lyophilized), and molecular weight standards were denatured by boiling for 15 min. in 0.11M sodium phosphate buffer, pH 7.0, which contained 1% sodium dodecyl sulfate, 1% 2-mercaptoethanol, 36% urea, and 0.015% bromphenol blue. The final protein concentrations were 2 mg/mL and 10 to 20 μL aliquots were loaded on the gel. The process was conducted using a Bio-Rad Mini-Protean II dual slab cell apparatus. The extent of cross-linking of the hemoglobin could be estimated by visual comparison of the resolved electrophoretic bands after fixation followed by staining with Coomassie Brilliant Blue R.
The above procedure was repeated with solutions of fumaryl bis(methyl phosphate) at concentrations of 0.3 mM, 3.0 mM and 30 mM; 3,3'stilbene dicarboxylic acid bis(methyl phosphate) at a concentration of 30 mM and methyl acetyl phosphate at a concentration of 0.6M.

[3] = biological target: carbonmonoxyhemoglobin (COHb) (Homo sapiens, UniProt P68871+P69905); assay: Reaction of FMP with carbonmonoxyhemoglobin, conversion by anion exchange chromatography; format: biochemical
Sequence of carbonmonoxyhemoglobin (COHb) (P69905 2-142 limits assumed): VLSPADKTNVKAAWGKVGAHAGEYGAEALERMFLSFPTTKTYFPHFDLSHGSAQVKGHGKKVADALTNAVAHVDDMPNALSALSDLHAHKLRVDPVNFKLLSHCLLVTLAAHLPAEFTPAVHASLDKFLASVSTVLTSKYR
Sequence of carbonmonoxyhemoglobin (COHb) (P68871 2-147 limits assumed): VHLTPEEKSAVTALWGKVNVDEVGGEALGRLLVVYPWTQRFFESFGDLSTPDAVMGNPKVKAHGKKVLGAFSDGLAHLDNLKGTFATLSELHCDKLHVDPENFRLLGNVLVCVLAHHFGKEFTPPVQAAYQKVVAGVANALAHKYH
Procedure: The effect of pH, type of buffer, and ligand state of the cross-linked hemoglobin was examined for the reaction of fumaryl bis(methyl phosphate) (FMP) with hemoglobin.
ethanesulphonic acid]at pH 7.5, 35°, for 2 hours. Over the range of pH from 6.8 to 7.5, the greatest reaction between COHb and FMP was obtained at the pH of 7.2 in bisTris. The reaction at pH 7.2, . […] A second peak of reacted material observed by anion exchange chromatography increased over 3 hours from 14% at 10 minutes to about 30% by 3 hours.

human hemoglobin [4] = assay: Cross-linking site of the reaction with hemoglobin; format: biochemical
Source text: Structural characterization of the major and some minor modified hemoglobins that result form reacting deoxyHb and COHb with FMP were made by isolating single hemoglobin components wherever possible. The initial separation was made on a preparative size Synchropak AX300 anion exchange column. Further purification was obtained by rechromatography of anion exchange zones containing mixtures of hemoglobins on a preparative size Synchropak CM300 cation exchange column. Zones from cation exchange rechromatography were then subjected to globin chain separation using Vydak C-4 large pore reverse phase columns. In some cases, this was sufficient for identification of the unmodified globin chains. In most cases the globin chain was isolated, treated by oxidations or aminoethylation to stabilize the zysteinyl residues, hydrolyzed with trypsin and glu-C proteonase and the resultant peptides were separated and analyzed for amino acid composition. Table II lists the components isolated and the structural modifications identified for the FMP treated hemoglobin.
The number, chromatographic elution positions, and amounts of products of hemoglobin reacted with FMP varies with the ligand state of the hemoglobin and with the presence or absence of 2,3-DPG (2,3, diphosphoglycerate). FIG. 1 is an artion exchange HPLC chromatogram of the reaction mixture after treatment of deoxyhemoglobin with FMP. […]

With `COP(=O)(O)OC(=O)c1cccc(/C=C/c2cccc(C(=O)OP(=O)(O)OC)c2)c1` [Stilbene 3,3'-dicarboxylic acid bis(sodiummethyl phosphate)] the half-life [1] was 100 h and the “species produced by reaction with hemoglobin (SDS gel electrophoresis)” value (“species produced by reaction” for short) (human hemoglobin [2]) was “dimeric and tetrameric species”.

In the case of `COP(=O)(O)OC(=O)c1ccc(/C=C/c2ccc(C(=O)OP(=O)(O)OC)cc2)cc1` [Stilbene 4,4'-dicarboxylic acid bis(sodiummethyl phosphate)], the “change observed in the 31P NMR spectrum” value ([1]; followed for nine hours) is reported as “no change observed in the spectrum” and the “species produced by reaction” value (human hemoglobin [2]) is reported as “dimeric and tetrameric species”.

In the case of `COP(=O)(O)OC(=O)/C=C/C(=O)OP(=O)(O)OC` [fumaryl bis(methyl phosphate), Fumaryl bis(sodium methyl phosphate)], the half-life [1] is reported as 36 h, the “species produced by reaction” value (human hemoglobin [2]) is reported as “dimeric and tetrameric species” and the “conversion of the hemoglobin to fumaryl derivatives” value ([3]; 1 mM COHb, 2 mM FMP, pH 7.2, 35°, 2 hours) is reported as “about 75%”. The “second peak of reacted material” value ([3]; 1 mM COHb, 2 mM FMP, pH 7.2, 35°, at 10 minutes) was 14%, the “major modified component, percent of total hemoglobin” value ([3]; 1 mM COHb, 2 mM FMP, pH 7.2, 35°, by 10 minutes) was “approximately 35%” and the “second peak of reacted material” value ([3]; 1 mM COHb, 2 mM FMP, pH 7.2, 35°, by 3 hours) was “about 30%”. The “effect of buffer on amounts or varieties of reaction products” value ([3]; COHb, bisTris compared to HEPES, pH 7.5, 35°, 2 hours) was “No significant differences”, the “pH of greatest reaction between COHb and FMP” value ([3]; pH range 6.8 to 7.5, bisTris) was 7.2 and the “cross-links formed in hemoglobin” value (human hemoglobin [4]; absence of 2,3-diphosphoglycerate) was “cross-linked between β subunits (val-1 to lys-82) and between the same residues in a single β subunit as well as a cross-link between α subunits between lys-99 in each subunit; also recorded: cross-linked between β subunits (val-1 to lys-82) and between the same residues in a single β subunit as well as crosslinked between α subunits between lys-99 in each subunit”. For the same compound, the “cross-linking site of reaction” value (human hemoglobin [4]; human hemoglobin) was “the highly cationic site which binds 2,3-diphosphoglycerate”.

With `O=C(O)c1cccc(C=Cc2cccc(C(=O)O)c2)c1` [stilbene 3,3'-dicarboxylic acid, Stilbene 3,3'-dicarboxylic acid, reference compound] the “species produced by reaction” value (human hemoglobin [2]) was “monomeric”.
